Laboratory results published in publication PMC10470313, “Developing a peptide to disrupt cohesin head domain interactions” (iScience, 2023).
Where no end group is shown, it is not given here.

Tested on: yME-961 strain yeast cells
Assay: Sister chromatid cohesion GFP dot assay
Assay type: cell-based
Conditions: peptide 1 h at G1, release, G2/M arrest
Experimental: Figure 4 CIP3 inhibits sister chromatid cohesion and chromosome condensation (A) Flowchart outlining the sister chromatid cohesion assay. (B) yME-961 strain cells were grown and treated with peptides, as shown in A. Premature sister chromatid separation was determined by counting the number of cells showing two GFP dots. At least 300 cells were counted in 3 independent experiments. ∗∗p < 0.001. (C) Cells were grown to mid-log phase. The culture was divided into two flasks, one being treated with CIP3-TAT. Condensation was determined in cells at the G2/M phase by 2-photon microscopy. ∗∗p < 0.001. (D) yKS-008 strain (Smc3-V5) cells were grown and treated with CIP3-TAT peptide, as shown in A. Cells were processed for ChIP with antibodies against V5.
The potential of CIP3-TAT to inhibit cohesion activity was explored by analyzing sister chromatid cohesion in cells arrested at the G2/M. Inserted in the LYS4 locus were LacO arrays, which bind LacI-GFP. In unperturbed cells arrested at the G2/M phase of the cell cycle, cohesin tethers the sister chromatids visualized under the microscope as a single GFP dot. When cohesin is inactivated, the sister chromatids fall apart and are seen as two distinctive GFP dots. yME-961 strain cells were grown to mid-log phase and arrested at the G1 phase of the cell cycle. […]

## KRFKDMEYLSGGEKTGGYGRKKRRQRRR [CIP3-TAT]
  sister chromatid cohesion level: precocious separation of the sister chromatids
LacO at LYS4, at least 300 cells in 3 independent experiments
  cells with precocious separation of sister chromatids (two GFP dots): approximately 80%
